Legend:
[1] = tested on: prostate cancer cell line PC-3; test: Anticancer activity in PC-3 tumor-transplanted nude mice; assay type: in vivo; conditions: for tumor production inhibitory activity relative to the control group: 2 mg/kg orally every day for 35 days
Experimental: Based on the anticancer activity of thio-Cl-IB-MECA against prostate cancer cells, proven by the in vitro test, the anticancer activity of thio-Cl-IB-MECA was measured by an animal test. The prostate cancer cell line PC-3 was transplanted subcutaneously into nude mice, and when the tumor size reached 150-200 mm^3 after 8 days, the drug thio-Cl-IB-MECA (0.02, 0.2 and 2 mg/kg), thio-IB-MECA (2 mg/kg) or IB-MECA (2 mg/kg) was administered orally every day for 35 days. The tumor size was measured at intervals of 3-5 days. The tumor volume was measured using the following equation 3.
Tumor volume=abc×π/6 [Equation 3]
wherein a represents the longer diameter of the tumor, b represents the shorter diameter of the tumor, and c represents the height of the tumor.

[2] = tested on: human colorectal cancer HCT 116 cells; test: SRB assay, growth of HCT 116 cells; assay type: cell-based; conditions: 72 hours; for growth of HCT 116 cells: 100, 50, 25 and 12.5 μM; for IC50: SRB
Experimental: In order to compare the inhibitory effect of thio-Cl-IB-MECA of the present invention on the inhibition of human colorectal cancer HCT 116 cells with the effects of other A3 adenosine receptor agonists, IB-MECA and Cl-IB-MECA, a sulforhodamine B (SRB) assay was performed.
Specifically, 10 μL of a solution of thio-Cl-IB-MECA in 10% dimethylsulfoxide (DMSO) was loaded in each well of a 96-well plate in triplicate at concentrations of 100, 50, 25 and 12.5 μM, thus making a test plate. Cells were diluted to a density of 5×10^4 cells/ml with 10% FBS-containing RPMI 1640 medium supplemented with antibiotics-antimycotics, and 190 μL of the cell suspension was added to each well so as to reach a total volume of 200 μL and was cultured in a 5% CO2 incubator at 37° C. for 3 days. At the same time, 190 μL of the same cell suspension was loaded into each of 16 wells or more of a fresh 96-well plate containing no sample (thio-Cl-IB-MECA) and was cultured in a 5% CO2 incubator at 37° C. for 30 minutes, thereby determining reference date. After the culture, 50 μL of 50% trichloroacetic acid (TCA) was added to each well, and the cells were fixed by culture at 4° C. for 1 hour. Then, the well plate was washed five times with tap water and dried. 100 μL of a 1% acetic acid solution containing […] sulforhodamine B (SRB) was added to each well to stain the cells, and the well plate was allowed to stand at room temperature for 1 hour. After the well plate has been washed five times with 1% acetic acid and sufficiently dried, 200 μL of 100 mM Tris-base was added to each well, and the bound staining liquid was dissolved and sufficiently shaken in a shaker. Then, the absorbance at 515 nm was measured using an ELISA microplate reader. Based on the measured absorbance, the cell viability of the test group relative to the control group was calculated using equation 2 above. Based on the viability at each concentration, the IC50 value of the test sample was calculated using TableCurve program.
In the cases of IB-MECA or Cl-IB-MECA, the viability of cancer cells was examined in the same manner as the case of thio-Cl-IB-MECA.

LNCaP = test: Morphological change of LNCaP cells; assay type: cell-based, human; conditions: 40, 20 and 10 μM, 48 hours
Experimental: (§1) Each of LNCaP and PC-3 prostate cancer cell lines was treated with 40, 20 and 10 μM of thio-Cl-IB-MECA and cultured for 48 hours, and then the morphological change of the cells was observed.
(§2) Specifically, each type of the prostate cancer cells was diluted with 10% FBS (Fetal Bovine Serum)-containing medium to a density of 1.0×10^6 cells per 100 mm culture dish and cultured under the conditions of 37° C. and 5% CO2, followed by washing twice with PBS (Phosphate Buffered Saline). Thio-Cl-IB-MECA was diluted in 10% FBS-containing medium at required concentration, and then 10 ml of the culture medium prepared in the 100 mm culture dish was added thereto and incubated for a given time. The morphology of the cells was observed as a function of treatment time and concentration (FIGS. 11a and 11b).

ICR white mice = test: Animal toxicity test, single oral dose; assay type: in vivo; conditions: oral 1500 mg/kg, n=10
Experimental: In order to examine the toxicities of thio-Cl-IB-MECA and thio-IB-MECA, each of the compounds was administered orally to ICR white mice (n=10, 25 g) at a dose of 1500 mg/kg weight, and the behavioral change and state of the mice were observed.

HCT 116 cells = test: RT-PCR of cell cycle regulation-related genes in HCT 116 cells; assay type: cell-based, human; conditions: 40 μM
Experimental: A test was carried out to examine whether cell cycle regulation-related genes involved in the G1 phase are expressed.
Specifically, HCT 116 cells were diluted with 10% FBS-containing medium to a density of 1×10^6 cells per 100 mm culture dish and cultured under the conditions of 37° C. and 5% CO2 for 24 hours, followed by washing twice with PBS. Thio-Cl-IB-MECA was diluted in 10% FBS-containing medium to a concentration of 40 μM, and then 10 ml of the culture medium prepared in the 100 mm culture dish was added thereto and cultured for a given time. The non-adherent cells and adherent cells in the cell medium were collected and washed twice with PBS. Then, the cells were lysed with TRI reagent (TRIzol), after which CHCl3 was added thereto and RNA was extracted from the cells and precipitated using isopropyl alcohol. The RNA precipitate was washed with 70% ethanol and dried in air, after which it was suspended in nuclease-free water. The suspension was heated at 55° C. for 10 minutes and then at 70° C. for 5 minutes, so that the RNA was present as a single chain. The total RNA was quantified with NanoDrop, after which it was diluted to a concentration of 1 μg/μl and made into cDNA using avian myeloblastosis virus (AMV) reverse transcriptase and oligo (dT)15 primers. […]

PC-3 = test: Morphological change of PC-3 cells; assay type: cell-based, human; conditions: 40, 20 and 10 μM, 48 hours
Experimental: as §1, §2

| SMILES | tumor production inhibitory activity relative to the control group [1] | growth of HCT 116 cells [2] | IC50 [2] | number of the cells, LNCaP (LNCaP) | survival and side effects up to 7 days after administration (ICR white mice) | tumor production as a function of dose ([1]; 0.02, 0.2 and 2 mg/kg orally every day for 35 days) | gene expression of cyclin D1 and c-Myc (HCT 116 cells) | gene expression of p21 and p53 (HCT 116 cells) | number of the cells, PC-3 (PC-3) |
| --- | --- | --- | --- | --- | --- | --- | --- | --- | --- |
| CNC(=O)[C@H]1O[C@@H](n2cnc3c(NCc4cccc(I)c4)ncnc32)[C@H](O)[C@@H]1O [IB-MECA] | about 45.9% | concentration-dependently inhibited the growth | 62.4 µM | – | – | – | – | – | – |
| CNC(=O)[C@H]1S[C@@H](n2cnc3c(NCc4cccc(I)c4)nc(Cl)nc32)[C@H](O)[C@@H]1O [thio-Cl-IB-MECA, 2-chloro-N^6-(3-iodobenzyl)-4′-thioadenosine-5′-N-methyluronamide] | 82.6% | concentration-dependently inhibited the growth | 37.5 µM | decreased in a concentration-dependent manner | survived healthfully without particular side effects | inhibited tumor production in a concentration-dependent manner | inhibited the expression | increased the expression | decreased in a concentration-dependent manner |

Reference: patent publication US20140371244A1, “METHOD FOR TREATING PROSTATE CANCER BY USE OF PHARMACEUTICAL COMPOSITION CONTAINING A3 ADENOSINE RECEPTOR AGONIST” (priority 2009, published 2014)
